Like-named read-outs stand apart in the source and are kept apart here.
What was measured:
[1] = target: T1, human CA-XII (Homo sapiens, UniProt O43570); assay: Surface Plasmon Resonance (SPR) binding kinetics to recombinant human CA-XII (Biacore 8K, single-cycle kinetics, 1:1 binding model)
T1 construct: purchased Creative BioMart CA12-261H
Summary of the method: (§1)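 First, ligand at 10 μg/mL was captured on streptavidin to 1200-1800 RU, with 180 s injection for CA-IX and 75 s for CA-XII. Next, compound (100-0.39 nM, 9 levels) in PBS-P+ with 1% DMSO was injected. Association lasted 120 s and dissociation 1200 s at 25° C.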

[2] = target: T2, human CA-IX (Homo sapiens, UniProt Q16790); assay: Surface Plasmon Resonance (SPR) binding kinetics to recombinant human CA-IX (Biacore 8K, single-cycle kinetics, 1:1 binding model)
T2 construct: purchased Acro CA9-H82E3
Summary of the method: as §1

[3] = Chelated Metal: Lu-175, 25° C., pH 7.4, read-out: CAXII KD
[4] = Chelated Metal: Lu-175; SPR, 25° C., pH 7.4; read-out: CAIX KD

T1 sequence (O43570 25-354): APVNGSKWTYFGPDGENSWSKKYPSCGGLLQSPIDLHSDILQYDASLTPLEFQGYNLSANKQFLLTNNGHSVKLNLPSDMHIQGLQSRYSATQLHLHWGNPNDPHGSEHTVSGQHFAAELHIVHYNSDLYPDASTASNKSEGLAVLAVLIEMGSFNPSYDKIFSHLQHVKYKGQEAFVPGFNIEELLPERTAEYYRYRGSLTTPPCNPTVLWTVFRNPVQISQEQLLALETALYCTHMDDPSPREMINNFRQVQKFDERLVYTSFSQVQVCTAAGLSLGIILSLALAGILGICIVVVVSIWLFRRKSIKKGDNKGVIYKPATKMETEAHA

| Structure (SMILES) | Kd [1, 3] [nM] | Kd [2, 4] [nM] | Kd ([1]; read-out: CAXII KD, Chelated Metal: Lu-175, 25° C., pH 7.4) [nM] | Kd ([2]; read-out: CAIX KD; Chelated Metal: Lu-175; SPR, 25° C., pH 7.4) [nM] |
| --- | --- | --- | --- | --- |
| CC(CCCC(=O)N1CCC(C(N)=O)(C(=O)NCC(=O)NC2(C(=O)NCCn3cc(C45CC(c6cn7nc(S(N)(=O)=O)sc7n6)(C4)C5)nn3)CCN(C(=O)CC[C@H](C(=O)O)N3CCN(CC(=O)O)CCN(CC(=O)O)CCN(CC(=O)O)CC3)CC2)CC1)(c1ccc(O)cc1)c1ccc(O)cc1.[Lu+3] [Compound 127.5] | 2.5 to 10 | < 1 |  |  |
| CC(CCC(=O)N[C@@H](CC(=O)N[C@@H](CC(=O)NC1(C(=O)NCCOCCOCCNC(=O)CN2CCN(CC(=O)O)CCN(CC(=O)O)CCN(CC(=O)O)CC2)CN(C(=O)Cn2cc(CCCCC(=O)Nc3nnc(S(N)(=O)=O)s3)nn2)C1)C(=O)O)C(=O)O)(c1ccc(O)cc1)c1ccc(O)cc1.[Lu+3] [Compound 103.4] | 2.5 to 10 | 2.5 to 10 |  |  |
| CC(CCCC(=O)N1CCC(C(N)=O)(C(=O)NCC(=O)N2CCN(C(=O)CC[C@H](C(=O)O)N3CCN(CC(=O)O)CCN(CC(=O)O)CCN(CC(=O)O)CC3)C[C@@H]2C(=O)NCCn2cc(C34CC(C(=O)Nc5nnc(S(N)(=O)=O)s5)(C3)C4)nn2)CC1)(c1ccc(O)cc1)c1ccc(O)cc1.[Lu+3] [Compound 127.2] | > 10 | < 1 |  |  |
| CC(CCC(=O)N[C@@H](CC(=O)N[C@@H](CC(=O)NC1(C(=O)NCCn2cc(C34CC(C(=O)Nc5nnc(S(N)(=O)=O)s5)(C3)C4)nn2)CCN(C(=O)CN2CCN(CC(=O)O)CCN(CC(=O)O)CCN(CC(=O)O)CC2)CC1)C(=O)O)C(=O)O)(c1ccc(O)cc1)c1ccc(O)cc1.[Lu+3] [Compound 117] |  |  | > 10 | 1 to 2.5 |
| NS(=O)(=O)c1nnc(NC(=O)C23CCC(c4cn(CCNC(=O)[C@@H]5CN(C(=O)CN6CCN(CC(=O)O)CCN(CC(=O)O)CCN(CC(=O)O)CC6)CCN5C(=O)CNC(=O)C5(C(=O)O)CCN(C(=O)CCCc6ccc(O)cc6)CC5)nn4)(CC2)CC3)s1.[Lu+3] [Compound 107.7] | 1 to 2.5 | < 1 |  |  |
| NS(=O)(=O)c1nnc(NC(=O)C23CC(c4cn(CCNC(=O)[C@@H]5CN(C(=O)CN6CCN(CC(=O)O)CCN(CC(=O)O)CCN(CC(=O)O)CC6)CCN5C(=O)C[C@H](NC(=O)C[C@H](NC(=O)c5ccc(CC6CC6)cc5)C(=O)O)C(=O)O)nn4)(C2)C3)s1.[Lu+3] [Compound 109.38] | 2.5 to 10 | < 1 |  |  |
| NS(=O)(=O)c1nnc(NC(=O)C23CC(c4cn(CCNC(=O)[C@@H]5CN(C(=O)CN6CCN(CC(=O)O)CCN(CC(=O)O)CCN(CC(=O)O)CC6)CCN5C(=O)C[C@H](NC(=O)C[C@H](NC(=O)c5ccc(C6(C(F)(F)F)CC6)cc5)C(=O)O)C(=O)O)nn4)(C2)C3)s1.[Lu+3] [Compound 109.24] | 2.5 to 10 | 1 to 2.5 |  |  |
| NS(=O)(=O)c1nnc(NC(=O)C23CC(c4cn(CCNC(=O)[C@@H]5CN(C(=O)CN6CCN(CC(=O)O)CCN(CC(=O)O)CCN(CC(=O)O)CC6)CCN5C(=O)C[C@H](Nc5ncc(C(=O)NCc6ccc(C7CC7)cn6)cn5)C(=O)O)nn4)(C2)C3)s1.[Lu+3] [Compound 111.2] | > 10 | 2.5 to 10 |  |  |
| CC(CCCC(=O)N1CCC(C(=O)O)(C(=O)NCC(=O)N[C@@H](CCCCn2cc(CCCC(=O)Nc3nnc(S(N)(=O)=O)s3)nn2)C(=O)NCCOCCOCCNC(=O)CN2CCN(CC(=O)O)CCN(CC(=O)O)CCN(CC(=O)O)CC2)CC1)(c1ccc(O)cc1)c1ccc(O)cc1.[Lu+3] [Compound 102.1] | > 10 | < 1 |  |  |
| NS(=O)(=O)c1nnc(CC(=O)C23CC(c4cn(CCNC(=O)[C@H]5COCCN5C(=O)CC[C@H](NC(=O)[C@H](CCCCNC(=O)CN5CCN(CC(=O)O)CCN(CC(=O)O)CCN(CC(=O)O)CC5)NC(=O)c5n[nH]c6ccccc56)C(=O)O)nn4)(C2)C3)s1.[Lu+3] [Compound 118.4] | > 10 | 1 to 2.5 |  |  |
| NS(=O)(=O)c1nnc(NC(=O)C23CC(c4cn(CCNC(=O)[C@@H]5CN(C(=O)CN6CCN(CC(=O)O)CCN(CC(=O)O)CCN(CC(=O)O)CC6)CCN5C(=O)C[C@H](Nc5ncc(C(=O)NCC6CC7(CCC7)C6)cn5)C(=O)O)nn4)(C2)C3)s1.[Lu+3] [Compound 111.9] | > 10 | 1 to 2.5 |  |  |
| Cc1c(C(F)(F)F)n[nH]c1C(=O)N1CCC(C(=O)O)(C(=O)NCC(=O)N2CCN(C(=O)CN3CCN(CC(=O)O)CCN(CC(=O)O)CCN(CC(=O)O)CC3)C[C@H]2C(=O)NCCn2cc(C34CC(C(=O)Nc5nnc(S(N)(=O)=O)s5)(C3)C4)nn2)CC1.[Lu+3] [Compound 112.13] | > 10 | 1 to 2.5 |  |  |

— US20260325685A1, “Radiopharmaceutical Compositions Targeting Carbonic Anhydrase IX and Uses Thereof” (RayzeBio, Inc., priority 2023, published 2026)
